Measured values: US7879795B2, “Enhancement of tigecycline potency using efflux pump inhibitors” (Mpex Pharmaceuticals, Inc., priority 2004, dated 2011)
Like-named read-outs stand apart in the source and are kept apart here. One block for each molecule: values may come before it.

Columns and labels:
Klebsiella pneumonia 79 = test: Antibiotic MIC with fixed concentration of compound 21, Klebsiella pneumonia 79; type: cell-based
Method: (§1) To further characterize the clinical potential of tigecycline/EPI combinations, the microbiological activity of tigecycline in combination with compound 21 was investigated using clinical isolates of P. aeruginosa and other gram-negative bacteria. In several experiments, described below, the impact of a fixed concentration of compound 21 (2.5 μg/ml) on susceptibility to tigecycline was determined.
(§2) The impact of compound 21 on the activity of tigecycline against representative members of Enterobacteriacaea was also tested.

Enterobacter cloacae 25 = test: Antibiotic MIC with fixed concentration of compound 21, Enterobacter cloacae 25; type: cell-based
Citrobacter freundii 13 = test: Antibiotic MIC with fixed concentration of compound 21, Citrobacter freundii 13; type: cell-based
Method: as §1, §2

[1] = system: Enterobacter aerogenes 19; test: Antibiotic MIC with fixed concentration of compound 21, Enterobacter aerogenes 19; type: cell-based
Klebsiella pneumonia 73 = test: Antibiotic MIC with fixed concentration of compound 21, Klebsiella pneumonia 73; type: cell-based
Method: as §1, §2

[2] = system: P. aeruginosa, PAM1723, overexpressing the MexAB-OprM efflux pump; test: Levofloxacin potentiation checkerboard assay (broth microdilution); type: cell-based
Method: Stock solution was stored at −80° C.
The checkerboard assay was performed in microtiter plates. […] EPIs were diluted in the y axis, each row containing an equal concentration of an EPI. The result of these manipulations was that each well of the microtiter plate contains a unique combination of concentrations of the two agents. The assay was performed in MHB with a final bacterial inoculum of 5×10^5 CFU/ml (from an early-log phase culture). Microtiter plates were incubated during 20 h at 35° C. and were read using a microtiterplate reader (Molecular Devices) at 650 nm as well as visual observation using a microtiter plate-reading mirror.

[3] = Tissue levels in rat six-hour after 8.4 mg/kg IV bolus; type: in vivo; conditions: rat kidney, liver and lung; 8.4 mg/kg IV bolus; in words
Method: Tissue levels of compounds 1, 2, 3 and 4 were evaluated in kidney, liver and lung six-hour after 8.4 mg/kg IV bolus administration. FIG. 13 depicts the levels as a function of time.
Compound 67, which is the expected metabolite of proteolytic intracellular degradation of compound 3, was detected in rat tissues after IV infusion, confirming the tissue-specific degradation of compound 3 (Tables 9A, B).

[4] = In vitro stability in rat serum and tissue homogenates (LC/MS/MS); type: in vitro ADME; conditions: in words
Method: To test the stability of the compounds in vitro, samples were prepared and analyzed by LC/MS/MS according to the following procedure.
Homogenization: A chunk of fresh tissue was weighed and mixed with saline at 1:1 ratio (w/v) in a 12×75 mm polypropylene round bottom tube. The mixture was homogenized with a Polytron homogenizer (on ice, 3×10 seconds with 10 second intervals at the setting of 7).
Incubation and TCA-precipitation: An appropriate amount of a tissue homogenate was pre-warmed at 37° C. for 2 minutes in an Eppendorf tube. The compound to be tested was added to the tube to a final concentration of 2 μg/ml, mixed, and a 60 μl aliquot was immediately taken (as 0 hour sample) and mixed with 120 μl of 4% TCA (trichloroacetic acid) in an Eppendorf tube. The temperature of the tube containing the rest of the tissue sample was returned to 37° C. for incubation. Later, samples were taken as scheduled and mixed with TCA as described above. Plasma and lavage samples were directly incubated with the compounds without addition of saline and homogenization.
LC/MS/MS sample vial preparation: TCA-precipitated sample tubes were vortexed for 30 seconds, centrifuged in a microfuge at top speed (13.2 k rpm) for 5 minutes. The supernatant was collected. The pH was neutralized to about 3.5 with ammonium acetate buffer. The sample (45 μl) was transferred to a glass LC/MS/MS vial (Kimble, 11 mm, 1.5 ml) and 5 μl of an internal standard was added to a final concentration of 500 ng/ml. LC/MS/MS analysis was performed in Chemistry Department of San Diego State University.
LC/MS/MS protocol: Thermo-Finnigan TSQ Quantum triple sector mass spectrometer with electrospray (ESI) ionization was used to analyze the samples. The operation conditions were: Mobile phase of pH 3.00 water/formic acid: acetonitrile-methanol (45%:5%:50% by volume); Thermo-Keystone Betabasic C-18 column (2.1 mm×50 mm) operated at 0.100 mL/min.
Many proteases responsible for degrading EPI compounds are located in […]. Lysozymes typically have an acidic pH (about 4.8-5), whereas the pH in tissue homogenates that were prepared was higher (kidney, pH 6.8; liver, pH 6.6; and lung, pH 7.5). To test the effect of tissue homogenates closer to physiological conditions, the pH was lowered to about 6 by adding acetic acid to the tissue homogenates and compound stability was tested. FIG. 2 depicts the stability of compounds 1 and 3 at different pH. […] The pH-dependent degradation of compound 3 was especially evident in kidney homogenates.
FIG. 4 is a bar graph depicting the stability of compound 3 in the supernatant and pellet of kidney tissue homogenates.

[5] = Rat serum pharmacokinetics after 2-hour IV infusion; type: in vivo
Method: Rat serum pharmacokinetics of compounds 1, 3, 7, and 21 was evaluated after 2-hour IV infusion of 1 mg/ml EPI solution in 0.9% saline. Total infused dose was 10 mg/kg. FIG. 12 depicts the serum concentrations as a function of time. A two-compartment model was used to fit the data and calculate PK parameters.

[6] = Tissue levels after 2-hour IV infusion in rats; type: in vivo, rat; conditions: for concentration at 6 h: 4 h after end of 2-hour IV infusion; for concentration at 6 h / concentration at 2 h: 10 mg/kg; for 2 h/4 h Ratio: Table 7, 2 h and 6 h; for concentration at 2 h: end of 2-hour IV infusion
Method: Levels of EPIs in various tissues were evaluated after 2-hour IV infusion in rats. The rats received 10 mg/kg IV infusion through FVC. Animals were divided into 2 groups: group 1 was sacrificed immediately after the end of infusion and group 2, 2 h or 4 h after the end of infusion. Tissues from each animal were collected, homogenized and compounds were extracted. Tissues were mixed with saline at 1:1 ratio (v/w) in 12×75 mm polypropylene round bottom tubes. The mixtures were homogenized with a Polytron homogenizer (on ice, 3×10-15 seconds with 30 seconds intervals at the setting of 7). 50 μl of homogenized tissue were immediately transferred to an Eppendorf tube and 2-volumes of 4% TCA were added. After vortexing for 30 seconds, the tubes were centrifuged in a microfuge at top speed (13.2 k rpm) for 5 minutes. The supernatant was collected, and 45 μl of the supernatant was transferred to a glass LC/MS/MS vial (Kimble, 11 mm, 1.5 ml) for analysis, which allowed determination of tissue levels of EPIs at the end of the infusion and 2 h or 4 h later.

PAM1723 = conditions: for stability in rat serum: summary of Table 4, in words
Method: Stability in rat and human serum was also evaluated using a bioassay. 320 μg/ml of the test compound was treated with 50% serum for 4 hours.
Bioassays as described in Example 62 and Example 65 were used to evaluate the stability of various compounds in serum and rabbit kidney homogenates.

[7] = system: strain PAM1723 of P. aeruginosa; type: in vitro ADME
Method: Stability of compounds was also evaluated using a bioassay. The test compound at 320 μg/ml was treated with rabbit kidney supernatant for 0, 0.5, 1 and 2 hours.

Azi (MIC) (Klebsiella pneumonia 79; azithromycin alone): 64 µg/mL | Azi (MIC) (Enterobacter cloacae 25; azithromycin alone): 16 µg/mL | Azi (MIC) (Citrobacter freundii 13; azithromycin alone): 8 µg/mL | Azi (MIC) ([1]; azithromycin alone): 32 µg/mL | Azi (MIC) (Klebsiella pneumonia 73; azithromycin alone): 16 µg/mL
Molecule: CC[C@H]1OC(=O)[C@H](C)[C@@H](O[C@H]2C[C@@](C)(OC)[C@@H](O)[C@H](C)O2)[C@H](C)[C@@H](O[C@@H]2O[C@H](C)C[C@H](N(C)C)[C@H]2O)[C@](C)(O)C[C@@H](C)CN(C)[C@H](C)[C@@H](O)[C@]1(C)O [Azithromycin, reference compound]

Molecule: NCCC[C@@H](N)C(=O)N[C@@H](CCc1ccccc1)C(=O)Nc1cnc2ccccc2c1 [Compound 4, 2-(R),5-Diamino-pentanoic acid [3-phenyl-1-(S)-(quinolin-3-ylcarbamoyl)-propyl]-amide]
Antibiotic (levofloxacin) MIC in the presence of EPI ([2]; EPI 0 μg/ml (levofloxacin alone)): 2 µg/mL | Antibiotic (levofloxacin) MIC in the presence of EPI ([2]; EPI 1.25 μg/ml): 2 µg/mL | Antibiotic (levofloxacin) MIC in the presence of EPI ([2]; EPI 5 μg/ml): 2 µg/mL | Antibiotic (levofloxacin) MIC in the presence of EPI ([2]; EPI 10 μg/ml): 0.5 µg/mL | Antibiotic (levofloxacin) MIC in the presence of EPI ([2]; EPI 20 μg/ml): 0.06 µg/mL | Antibiotic (levofloxacin) MIC in the presence of EPI ([2]; EPI 40 μg/ml): 0.06 µg/mL | Antibiotic (levofloxacin) MIC in the presence of EPI ([2]; EPI 80 μg/ml): 0.03 µg/mL | Antibiotic (levofloxacin) MIC in the presence of EPI ([2]; EPI […]): 2 µg/mL | MPC8 ([2]; EPI concentration necessary to increase susceptibility to levofloxacin eight-fold): 20 µg/mL | tissue levels at 6 hours after IV injection [3]: relatively high levels | stability in supernatant of rat kidney tissue homogenates [4]: neither compound 1 nor compound 4 show any instability

Molecule: NCCC[C@H](N)C(=O)N[C@H](CCc1ccccc1)C(=O)Nc1ccc2ncccc2c1 [Compound 7, 2-(S),5-Diamino-pentanoic acid [3-phenyl-1-(R)-(quinolin-6-ylcarbamoyl)-propyl]-amide]
serum PK profile after 2-hour IV infusion ([5]; 10 mg/kg, in words): best serum PK profile | clearance ([5]; serum, 2-hour IV infusion, total dose 10 mg/kg, two-compartment model): 6.5 mL/min/kg | concentration at 6 h ([6]; rat kidney): 960 ng/mL | 2 h/4 h Ratio ([6]; rat kidney): 57.37 | concentration at 2 h ([6]; rat kidney): 55400 ng/mL | concentration at 6 h ([6]; rat liver): 270 ng/mL | 2 h/4 h Ratio ([6]; rat liver): 29.85 | concentration at 2 h ([6]; rat liver): 7960 ng/mL | concentration at 6 h ([6]; rat lung): 3170 ng/mL | 2 h/4 h Ratio ([6]; rat lung): 4.11 | concentration at 2 h ([6]; rat lung): 13000 ng/mL | tissue levels and clearance from tissues after 2-hour IV infusion ([6]; rat, in words): cleared from tissues relatively fast

Molecule: NCCC[C@H](N)C(=O)N[C@@H](CCc1ccc(F)cc1)C(=O)Nc1cnc2ccccc2c1 [Compound 9, 2-(S),5-Diamino-pentanoic acid [3-(4-fluoro-phenyl)-1-(S)-(quinolin-3-ylcarbamoyl)-propyl]amide]
stability in rat serum (PAM1723): unstable in rat serum

Molecule: CN(C(=O)[C@@H](CCc1ccccc1)NC(=O)[C@@H](N)CCCN)c1cnc2ccccc2c1 [Compound 18, 2-(S),5-Diamino-pentanoic acid [1-(R)-(methyl-quinolin-3-yl-carbamoyl)-3-phenyl-propyl]amide]
stability in rat serum (PAM1723): unstable in rat serum

Molecule: NCCC[C@H](N)C(=O)N[C@H](CCc1ccccc1)C(=O)Nc1cnc2ccccc2n1 [Compound 19, 2-(S),5-Diamino-pentanoic acid [3-phenyl-1-(R)-(quinoxalin-2-ylcarbamoyl)-propyl]-amide]
stability in rat serum (PAM1723): unstable in rat serum

Molecule: NCCC[C@H](N)C(=O)N[C@H](CCc1ccccc1)C(=O)Nc1cccc(-c2ccccc2)c1 [Compound 26]
EPI MPC8 after 4 hours at 37° C., Frosen Human serum (PAM1723; Table 4, human serum): 2.5 µg/mL | EPI MPC8 after 4 hours at 37° C., Frozen Rat serum (PAM1723; Table 4, rat serum): 2.5 µg/mL | EPI MPC8 after 4 hours at 37° C., Saline (PAM1723; Table 4, saline): 2.5 µg/mL | EPI MPC8 after incubation (h) with rabbit kidney supernatant at 37° C. ([7]; 0 h): 80 µg/mL | EPI MPC8 after incubation (h) with rabbit kidney supernatant at 37° C. ([7]; 0.5 h): >80 µg/mL | EPI MPC8 after incubation (h) with rabbit kidney supernatant at 37° C. ([7]; 1 h): >80 µg/mL | EPI MPC8 after incubation (h) with rabbit kidney supernatant at 37° C. ([7]; 2 h): >80 µg/mL | EPI MPC8, Saline (2 hours) ([7]; saline control of rabbit kidney supernatant bioassay, 37° C.): 2.5 µg/mL

Molecule: NCCC[C@H](N)C(=O)N[C@H](CCc1ccccc1)C(=O)Nc1ccc2cccnc2c1 [Compound 28, 2-(S),5-Diamino-pentanoic acid [3-phenyl-1-(R)-(quinolin-7-ylcarbamoyl)-propyl]-amide]
stability in rat serum (PAM1723): unstable in rat serum

Molecule: NCCC[C@H](N)C(=O)N[C@H](CCc1ccccc1)C(=O)Nc1ncc(Cl)cc1Cl [Compound 36, 2-(S),5-Diamino-pentanoic acid [1-(R)-(3,5-dichloro-pyridin-2-ylcarbamoyl)-3-phenyl-propyl]amide]
stability in rat serum (PAM1723): unstable in rat serum

Molecule: NCCC[C@H](N)C(=O)N[C@H](CCc1ccccc1)C(=O)Nc1cc2ccccc2nn1 [Compound 39, 2-(S),5-Diamino-pentanoic acid [1-(R)-(cinnolin-3-ylcarbamoyl)-3-phenyl-propyl]-amide]
stability in rat serum (PAM1723): unstable in rat serum

Levo (MIC) (Klebsiella pneumonia 79; levofloxacin alone): 64 µg/mL | Levo (MIC) (Enterobacter cloacae 25; levofloxacin alone): 2 µg/mL | Levo (MIC) (Citrobacter freundii 13; levofloxacin alone): 64 µg/mL | Levo (MIC) ([1]; levofloxacin alone): 128 µg/mL | Levo (MIC) (Klebsiella pneumonia 73; levofloxacin alone): 64 µg/mL
Molecule: C[C@H]1COc2c(N3CCN(C)CC3)c(F)cc3c(=O)c(C(=O)O)cn1c23 [Levofloxacin, reference compound]

Molecule: L-phenylalanine-L-ornithine-α-naphtylamide [MC-207110, reference compound]
EPI MPC8 after 4 hours at 37° C., Frozen Rat serum (PAM1723; Table 3, 50% rat serum): >80
